Where a name gives a salt, the structure may show the parent alone.
System: Acinetobacter baumannii ATCC17961
Experiment: Antimicrobial susceptibility testing: 90% growth inhibitory concentration (IC90) determination
Format: cell-based
Settings: Acinetobacter baumannii ATCC17961; Iso-Sensitest broth; growth by OD 600 nm over 16 h; 90% growth inhibitory concentration; read-out: ATCC 17961 IC90
Description: Antimicrobial Susceptibility Testing:
90% Growth Inhibitory Concentration (IC90) Determination
The in vitro antimicrobial activity of the compounds was determined according to the following procedure:
The assay used a 10-points Iso-Sensitest broth medium to measure quantitatively the in vitro activity of the compounds against Acinetobacter baumannii ATCC17961.
Stock compounds in DMSO were serially twofold diluted (e.g. range from 50 to 0.097 μM final concentration) in 384 wells microtiter plates and inoculated with 49 μl the bacterial suspension in Iso-Sensitest medium to have a final cell concentration of ˜5×10^(5) CFU/ml in a final volume/well of 50 ul/well. Microtiter plates were incubated at 35±2° C.
Bacterial cell growth was determined with the measurement of optical density at λ=600 nm each minutes over a time course of 16 h. Growth inhibition was calculated during the logarithmic growth of the bacterial cells with determination of the concentration inhibiting 50% (IC50) and 90% (IC90) of the growth.
Table 1 provides the 90% growth inhibitory concentrations (IC90) in micromoles per liter of the compounds of present invention obtained against the strain Acinetobacter baumannii ATCC17961.

Structure (SMILES) | IC90
Cn1c(-c2cn(-c3ccc([N+](=O)[O-])cn3)nc2C(F)(F)F)cnc1C(=O)Nc1ccc(C(=O)N2CCN(C(=O)[C@@H]3[C@@H](O)CC[N+]3(C)C)CC2)c(Cl)c1 [Example B7, N-[3-chloro-4-[4-[(2S,3S)-3-hydroxy-1,1-dimethyl-pyrrolidin-1-ium-2-carbonyl]piperazine-1-carbonyl]phenyl]-1-methyl-5-[1-(5-nitro-2-pyridyl)-3-(trifluoromethyl)pyrazol-4-yl]imidazole-2-carboxamide; formate] | 1600 nM
Cn1c(-c2cn(-c3ccc(N)cn3)nc2C(F)(F)F)cnc1C(=O)Nc1ccc(C(=O)N2CCN(C(=O)C3(O)CC[N+](C)(C)CC3)CC2)c(Cl)c1 [Example D10, 5-[1-(5-amino-2-pyridyl)-3-(trifluoromethyl)pyrazol-4-yl]-N-[3-chloro-4-[4-(4-hydroxy-1,1-dimethyl-piperidin-1-ium-4-carbonyl)piperazine-1-carbonyl]phenyl]-1-methyl-imidazole-2-carboxamide; formate] | 330 nM
Cn1c(-c2cn(-c3ncccn3)nc2C(F)(F)F)cnc1C(=O)Nc1ccc(C(=O)N2CC[N+](C)(C)CC2)c(Cl)c1 [Example B9, 4-(2-chloro-4-(1-methyl-5-(1-(pyrimidin-2-yl)-3-(trifluoromethyl)-1H-pyrazol-4-yl)-1H-imidazole-2-carboxamido)benzoyl)-1,1-dimethylpiperazin-1-ium] | 5200 nM
Cn1c(-c2cn(-c3ccc(N)cn3)nc2C(F)(F)F)cnc1C(=O)Nc1ccc(C(=O)N2CCN(C(=O)[C@@H]3COCC[N+]3(C)C)CC2)c(Cl)c1 [Example D13, 5-[1-(5-amino-2-pyridyl)-3-(trifluoromethyl)pyrazol-4-yl]-N-[3-chloro-4-[4-[(3S)-4,4-dimethylmorpholin-4-ium-3-carbonyl]piperazine-1-carbonyl]phenyl]-1-methyl-imidazole-2-carboxamide; formate] | 420 nM
Cn1c(-c2cn(-c3ccc(N)cn3)nc2C(F)(F)F)cnc1C(=O)Nc1ccc(C(=O)N2CCN(C(=O)[C@@H]3CC[N+](C)(C)C[C@H]3O)CC2)c(Cl)c1 (stereo in doubt) [Example D6, 5-[1-(5-amino-2-pyridyl)-3-(trifluoromethyl)pyrazol-4-yl]-N-[3-chloro-4-[4-[(3S,4R)-3-hydroxy-1,1-dimethyl-piperidin-1-ium-4-carbonyl]piperazine-1-carbonyl]phenyl]-1-methyl-imidazole-2-carboxamide; formate] | 370 nM
COc1ccc(-n2cc(-c3cnc(C(=O)Nc4ccc(C(=O)N5CCN(C(=O)C[N+]6(C)CC[C@@H](O)C6)CC5)c(Cl)c4)n3C)c(C(F)(F)F)n2)nc1 (stereo partly drawn) [Example A7, N-[3-chloro-4-[4-[2-[(3R)-3-hydroxy-1-methyl-pyrrolidin-1-ium-1-yl]acetyl]piperazine-1-carbonyl]phenyl]-5-[1-(5-methoxy-2-pyridyl)-3-(trifluoromethyl)pyrazol-4-yl]-1-methyl-imidazole-2-carboxamide; formate] | 550 nM
Cn1c(-c2cn(-c3ncccn3)nc2C(F)(F)F)cnc1C(=O)Nc1ccc(C(=O)N2CCN(C(=O)C3CC[N+](C)(CC(N)=O)CC3)CC2)c(Cl)c1 (stereo not shown) [Example C2, N-[4-[4-[1-(2-amino-2-oxo-ethyl)-1-methyl-piperidin-1-ium-4-carbonyl]piperazine-1-carbonyl]-3-chloro-phenyl]-1-methyl-5-[1-pyrimidin-2-yl-3-(trifluoromethyl)pyrazol-4-yl]imidazole-2-carboxamide; formate] | 1100 nM
Cn1c(-c2cn(-c3ccc(N)cn3)nc2C(F)(F)F)cnc1C(=O)Nc1ccc(C(=O)N2CCN(C(=O)[C@H]3CC[N+](C)(C)C[C@H]3O)CC2)c(Cl)c1 (stereo in doubt) [Example D7, 5-[1-(5-amino-2-pyridyl)-3-(trifluoromethyl)pyrazol-4-yl]-N-[3-chloro-4-[4-[(3S,4S)-3-hydroxy-1,1-dimethyl-piperidin-1-ium-4-carbonyl]piperazine-1-carbonyl]phenyl]-1-methyl-imidazole-2-carboxamide; formate] | 400 nM
Cn1c(-c2cn(-c3ncc(N)cc3F)nc2C(F)(F)F)cnc1C(=O)Nc1ccc(C(=O)N2CCN(C(=O)C3CC[N+](C)(C)CC3)CC2)c(Cl)c1 [Example A8, 5-[1-(5-amino-3-fluoro-2-pyridyl)-3-(trifluoromethyl)pyrazol-4-yl]-N-[3-chloro-4-[4-(1,1-dimethylpiperidin-1-ium-4-carbonyl)piperazine-1-carbonyl]phenyl]-1-methyl-imidazole-2-carboxamide] | 330 nM
Cn1c(-c2cn(-c3ccc(N)cn3)nc2C(F)(F)F)cnc1C(=O)Nc1ccc(C(=O)N2CCN(C(=O)[C@@H]3CC[N+](C)(C)C[C@@H]3O)CC2)c(Cl)c1 (stereo in doubt) [Example D5, 5-[1-(5-amino-2-pyridyl)-3-(trifluoromethyl)pyrazol-4-yl]-N-[3-chloro-4-[4-[(3R,4R)-3-hydroxy-1,1-dimethyl-piperidin-1-ium-4-carbonyl]piperazine-1-carbonyl]phenyl]-1-methyl-imidazole-2-carboxamide; formate] | 240 nM
Cn1c(-c2cn(-c3cnc(N)cn3)nc2C(F)(F)F)cnc1C(=O)Nc1ccc(C(=O)N2CCN(C(=O)C3CC[N+](C)(C)CC3)CC2)c(Cl)c1 [Example D16, 5-[1-(5-aminopyrazin-2-yl)-3-(trifluoromethyl)pyrazol-4-yl]-N-[3-chloro-4-[4-(1,1-dimethylpiperidin-1-ium-4-carbonyl)piperazine-1-carbonyl]phenyl]-1-methyl-imidazole-2-carboxamide] | 320 nM
Cn1c(-c2cn(-c3ccc(N)cn3)nc2C(F)(F)F)cnc1C(=O)Nc1ccc(C(=O)N2CCN(C(=O)C[N+]3(C)CCC(O)C3)CC2)c(Cl)c1 (stereo not shown) [Example D11, 5-[1-(5-amino-2-pyridyl)-3-(trifluoromethyl)pyrazol-4-yl]-N-[3-chloro-4-[4-[2-(3-hydroxy-1-methyl-pyrrolidin-1-ium-1-yl)acetyl]piperazine-1-carbonyl]phenyl]-1-methyl-imidazole-2-carboxamide; formate] | 210 nM

Second part, the molecule after the results:

IC90 | Structure (SMILES)
9830 nM | Cn1c(-c2cn(-c3ccc(N)cn3)nc2C#N)cnc1C(=O)Nc1ccc(C(=O)N2CCN(C(=O)C3CC[N+](C)(C)CC3)CC2)c(Cl)c1 [Example J2, 5-[1-(5-amino-2-pyridyl)-3-cyano-pyrazol-4-yl]-N-[3-chloro-4-[4-(1,1-dimethylpiperidin-1-ium-4-carbonyl)piperazine-1-carbonyl]phenyl]-1-methyl-imidazole-2-carboxamide; 2,2,2-trifluoroacetate]
330 nM | CNC(=O)CCNc1ccc(-n2cc(-c3cnc(C(=O)Nc4ccc(C(=O)N5CCN(C(=O)C6CC[N+](C)(C)CC6)CC5)c(Cl)c4)n3C)c(C(F)(F)F)n2)nc1 [Example L2, N-[3-chloro-4-[4-(1,1-dimethylpiperidin-1-ium-4-carbonyl)piperazine-1-carbonyl]phenyl]-5-[1-[5-[[3-keto-3-(methylamino)propyl]amino]-2-pyridyl]-3-(trifluoromethyl)pyrazol-4-yl]-1-methyl-imidazole-2-carboxamide]
350 nM | COCCOc1ccc(-n2cc(-c3cnc(C(=O)Nc4ccc(C(=O)N5CCN(C(=O)C6CC[N+](C)(C)CC6)CC5)c(Cl)c4)n3C)c(C(F)(F)F)n2)nc1 [Example G1, N-[3-Chloro-4-[4-(1,1-dimethylpiperidin-1-ium-4-carbonyl)piperazine-1-carbonyl]phenyl]-5-[1-[5-(2-methoxyethoxy)-2-pyridyl]-3-(trifluoromethyl)pyrazol-4-yl]-1-methyl-imidazole-2-carboxamide; formate]
300 nM | COCCNc1ccc(-n2cc(-c3cnc(C(=O)Nc4ccc(C(=O)N5CCN(C(=O)C6CC[N+](C)(C)CC6)CC5)c(Cl)c4)n3C)c(C(F)(F)F)n2)nc1 [Example E2, N-[3-chloro-4-[4-(1,1-dimethylpiperidin-1-ium-4-carbonyl)piperazine-1-carbonyl]phenyl]-5-[1-[5-(2-methoxyethylamino)-2-pyridyl]-3-(trifluoromethyl)pyrazol-4-yl]-1-methyl-imidazole-2-carboxamide; formate]
220 nM | CNc1ccc(-n2cc(-c3cnc(C(=O)Nc4ccc(C(=O)N5CCN(C(=O)C[N+]6(C)CCC(O)C6)CC5)c(Cl)c4)n3C)c(C(F)(F)F)n2)nc1 (stereo not shown) [Example E5, N-[3-chloro-4-[4-[2-(3-hydroxy-1-methyl-pyrrolidin-1-ium-1-yl)acetyl]piperazine-1-carbonyl]phenyl]-1-methyl-5-[1-[5-(methylamino)-2-pyridyl]-3-(trifluoromethyl)pyrazol-4-yl]imidazole-2-carboxamide; formate]
330 nM | CNc1ccc(-n2cc(-c3cnc(C(=O)Nc4ccc(C(=O)N5CCN(C(=O)C6CC[N+](C)(C)CC6)CC5)c(C)c4)n3C)c(C(F)(F)F)n2)nc1 [Example E7, N-[4-[4-(1,1-dimethylpiperidin-1-ium-4-carbonyl)piperazine-1-carbonyl]-3-methyl-phenyl]-1-methyl-5-[1-[5-(methylamino)-2-pyridyl]-3-(trifluoromethyl)pyrazol-4-yl]imidazole-2-carboxamide; formate]
610 nM | Cn1c(-c2cn(-c3ccc(N)cn3)nc2C(F)(F)F)cnc1C(=O)Nc1ccc(C(=O)N2CCC(C(=O)N3CC[N+](C)(C)CC3)CC2)c(Cl)c1 [Example H1, 5-[1-(5-Amino-2-pyridyl)-3-(trifluoromethyl)pyrazol-4-yl]-N-[3-chloro-4-[4-(4,4-dimethylpiperazin-4-ium-1-carbonyl)piperidine-1-carbonyl]phenyl]-1-methyl-imidazole-2-carboxamide; formate]

— patent US12655126B2, “Imidazole-pyrazole derivatives as antibacterials” (Hoffmann-La Roche Inc., priority 2020, dated 2026)
